Reference: patent US6955818B1, “Pour-on formulations” (Eli Lilly and Company, priority 1999, dated 2005)
Entries after “also recorded” stand apart in the source; their conditions may differ.

Columns and labels:
Bovicola ovis [1] = assay: Example 3: spinosad in a variety of carriers as pour-on, lice control on sheep housed indoors; type: in vivo; details: carrier containing spinosad, 0.4 mg/kg, 1 mL/5 kg
Experimental: The aim of this study was to select the most efficacious of a range of eight formulations that were selected on the basis of safety, physical properties, efficacy, cost and theories of dermal insecticide spread.
Each formulation was prepared to provide spinosad at a dose of 0.4 mg/kg and applied at a rate of 1 mL/5 kg of body weight.

[2] = Example 12: physical characteristics and freezing points of solvents and solvent combinations; type: physicochemical; details: vehicle alone
Experimental: The physical characteristics of various individual solvents and solvent combinations were determined.

[3] = Example 5: diffusion of 14C-zeta-cypermethrin on sheep skin in a variety of carriers; type: in vivo; details: 1 mL/5 kg on backline of sheep; for spread of zeta-cypermethrin from the backline (in words): carrier with 10 mg/mL 14C-spiked zeta-cypermethrin, wool at 2, 7.5, 15 cm meridians up to day 14
Experimental: This study compared the amount and rate of diffusion of ^14C-labelled zeta-cypermethrin from the dorsal midline of sheep, when applied in wool grease, in an aqueous formulation and in a range of test carriers.
Each formulation was applied to the backline of three sheep at 1 mL/5 kg body weight. Wool was collected from three 12×12-mm squares chosen at random, along meridian lines drawn 2, 7.5 and 15 cm down the side of each sheep from the backline. The wool samples were collected at 1, 2, 4, 8, 11 and 14 days after treatment, and each day's samples were pooled. The clipped areas were also swabbed. At day 14 after treatment, the wool at the site of application was collected and back and perirenal fat samples were collected. The quantity of zeta-cypermethrin in each sample was measured by liquid scintillation counting.

Merino sheep skin = assay: Pour-on carrier/vehicle sheep skin irritation studies (histological scoring); type: in vivo; details: for Mean skin irritation scores: 1 mL applied to skin of recently shorn Merino sheep, histological score 0-15 (0 no change, 15 very severe damage; normal 2-4, >4 abnormal, >7 very abnormal); for skin irritancy / histological dermatitis (in words): applied to skin of recently shorn Merino sheep, histology
Experimental: Studies were conducted to investigate and characterise the changes occurring in Merino sheep skin following the application of a range of candidate pour-on formulation components in order to discern safe carriers. Chemicals, emollients, wool grease derivatives and a wide range of formulations were applied (in 1 mL volumes) to each of 18 sites on the back and flanks of 15 recently shorn Merino sheep.
In the first study, skin samples were collected at necropsy 3½weeks after application. In subsequent studies, skin samples were collected 2 weeks after application. Standard haematoxylin and eosin stained sections were prepared from each piece of treated skin. A histological scoring system was devised to allow comparison of treatments. Each skin was assessed for the degree of hyperkeratosis, acanthosis and inflammatory cell infiltrate of the superficial dermis and given a rating score from 0–15. A score of 0=no change through to a score of 15 for very severe damage. Normal skin scored 2–4, >4 was abnormal and >7 was very abnormal. Treatments yielding a score ? 4.5 were considered safe. […]

[4] = system: Bovicola ovis (highly synthetic pyrethroid (SP) resistant, Hartley strain of lice); assay: Example 2: wool grease formulations and IPM with zeta-cypermethrin and spinosad, lice control on sheep; type: in vivo; details: for efficacy at eight weeks: 2 mL/10 kg
Source text: The purposes of this study were to evaluate wool grease as a formulation to deliver spinosad, to determine the dose required to kill 100% of lice in sheep and to evaluate the suitability of the formulation to deliver zeta-cypermethrin, compared with an isopropyl myristate (IPM) formulation.
Sheep were heavily infested with the highly synthetic pyrethroid (SP) resistant, Hartley strain of lice. Sheep were shorn, lice counted and sheep allocated to ten groups of six sheep, each divided into three groups of two per treatment. All sheep were treated at the rate of 2 mL of test formulation/10 kg of body weight. Treatments were, respectively: wool grease only; 2 mg/kg deltamethrin and 4 mg/kg alphacypermethrin in commercial formulations; spinosad in wool grease at 0.08 mg/kg, 0.4 mg/kg, 2 mg/kg and 10 mg/kg; zeta-cypermethrin in wool grease at 0.66 mg/kg and 2 mg/kg; and spinosad in IPM at 0.4 mg/kg. Lice numbers were counted weekly for eight weeks.

[5] = system: Bovicola ovis (Hartley, Claremont, susceptible and slightly resistant strains); assay: Example 6: zeta-cypermethrin in a variety of carriers, lice control on sheep; type: in vivo; details: for lice control, susceptible strain (in words): sheep infested with SP-susceptible strain
Experimental: These studies were devised to determine the efficacy of zeta-cypermethrin (at 2 mg/kg of body weight) in several nonaqueous formulations, and a commercial formulation of deltamethrin, on sheep infested with a severely synthetic pyrethroid (SP) resistant (Hartley) strain and a moderately SP resistant (Claremont) strain of Bovicola ovis. Some additional studies were undertaken with susceptible and slightly resistant lice to determine whether zeta-cypermethrin was able to kill lice under optimum conditions.

Bovicola ovis [6] = assay: Example 4: therapeutic efficacy and dose titration of spinosad pour-on, sheep housed outdoors; type: in vivo; details: 1 mL/5 kg
Experimental: This study was carried out to select the dose of spinosad required to eradicate sheep body lice when applied as a pour-on in OP/IPM/OSU (70:15:15) containing 5% oleic acid, and to compare the efficacy of spinosad at 0.4 mg/kg in a suspension concentrate (SC) formulation applied as a pour-on with that of the pour-on organic solvent formulation. The spinosad formulations were applied at 1 mL/5 kg and at 0, 0.2, 0.4, 0.8, 1.6 and 3.2 mg/kg to 6 groups of 6 recently shorn sheep that were housed outdoors for 6 weeks.

[7] = 2 mg/kg (deltamethrin in commercial formulation; zeta-cypermethrin in wool grease)

With `CCCCCCCCCCCCCC(=O)OC(C)C` [IPM, isopropyl myristate] the “efficacy by the end of the study” value (Bovicola ovis [1]) was “about 90%”, the freezing point [2] was −2 to −6 °C and the “spread of zeta-cypermethrin from the backline (in words)” value [3] was “greatest spread; also recorded: best spread”. For the same molecule, the “skin reaction at the site of application” value ([3]; carrier with 10 mg/mL zeta-cypermethrin) was “severe scabbing/crusting of the skin”, the “Mean skin irritation scores” value (Merino sheep skin) was 8 and the “skin irritancy / histological dermatitis (in words)” value (Merino sheep skin) was “severe dermatitis”.

With `CCCCCCCCCCCCCCCC(=O)OCCCCCCCC` [OP, octyl palmitate] the “Physical Properties (in words)” value [2] was “spreads, lubricant”, the “Mean skin irritation scores” value (Merino sheep skin) was 3.3 and the “skin irritancy / histological dermatitis (in words)” value (Merino sheep skin) was “non-irritant”.

In the case of `CC1(C)C(C=C(Cl)Cl)C1C(=O)OC(C#N)c1cccc(Oc2ccccc2)c1` (centres unmarked) [zeta-cypermethrin], the “efficacy at eight weeks” value ([4]; 0.66 mg/kg (zeta-cypermethrin in wool grease)) is reported as 0%, the “efficacy at eight weeks” value [4, 7] is reported as 43% and the “lice control compared with the other treatments (in words)” value ([4]; weekly counts for eight weeks) is reported as “no significant differences in efficacy at eight weeks; also recorded: better lice control than the commercial pour-ons for the first 5 weeks”. For the same molecule, the “lice control, lice with high and moderate resistance to SPs (in words)” value ([5]; 2 mg/kg zeta-cypermethrin in nonaqueous formulations, commercial deltamethrin, Hartley and Claremont strains) was “did not give adequate control”, the “lice control, susceptible strain (in words)” value ([5]; zeta-cypermethrin 2 mg/kg pour-on) was “did control” and the “lice control, susceptible strain (in words)” value ([5]; zeta-cypermethrin 2 mg/kg pour-on, listed as Zeta-cypermethrin) was “eradicated lice”. For the same molecule, the “lice control, mildly resistant strain (in words)” value ([5]; zeta-cypermethrin 2 mg/kg pour-on, sheep infested with mildly resistant strain) was “excellent control”.

In the case of spinosad, the “Efficacy (%) at Day 41” value (Bovicola ovis [6]; spinosad 0.2 mg/kg in OP/IPM/OSU (70:15:15) with 5% oleic acid) is reported as 37%, the “Efficacy (%) at Day 41” value (Bovicola ovis [6]; spinosad 0.4 mg/kg in OP/IPM/OSU (70:15:15) with 5% oleic acid) is reported as 46% and the “Efficacy (%) at Day 41” value (Bovicola ovis [6]; spinosad 0.8 mg/kg in OP/IPM/OSU (70:15:15) with 5% oleic acid) is reported as 78%. For the same molecule, the “Efficacy (%) at Day 41” value (Bovicola ovis [6]; spinosad 1.6 mg/kg in OP/IPM/OSU (70:15:15) with 5% oleic acid) was 37% and the “Efficacy (%) at Day 41” value (Bovicola ovis [6]; spinosad 3.2 mg/kg in OP/IPM/OSU (70:15:15) with 5% oleic acid) was 93%.

For `CC1(C)C(C=C(Cl)Cl)C1C(=O)OC(C#N)c1cccc(Oc2ccccc2)c1` (centres unmarked) [alphacypermethrin], the “efficacy at eight weeks” value ([4]; 4 mg/kg (alphacypermethrin in commercial formulation)) was 9%.

For `CCCCCCCC/C=C\CCCCCCCC(=O)OC` [methyl oleate], the “skin irritancy / histological dermatitis (in words)” value (Merino sheep skin) was “highly irritant”.

In the case of `CC1(C)[C@H](C(=O)O[C@H](C#N)c2cccc(Oc3ccccc3)c2)[C@@H]1C=C(Br)Br` [deltamethrin], the “efficacy at eight weeks” value [4, 7] is reported as 8%.

For `CC(=O)CC(C)(C)O` [Diacetone alcohol], the “Mean skin irritation scores” value (Merino sheep skin) was 2 and the “skin irritancy / histological dermatitis (in words)” value (Merino sheep skin) was “non-irritant”.

With isocetyl stearate [ICS] the “skin irritancy / histological dermatitis (in words)” value (Merino sheep skin) was “mild to moderate dermatitis”.

In the case of `CCCCCCCCCCC(CO)CCCCCCCC` (centres unmarked) [2-octyl-dodecanol], the “skin irritancy / histological dermatitis (in words)” value (Merino sheep skin) is reported as “highly irritant”.

In the case of `COC(C)COC(C)CO` (centres unmarked) [DPM, dipropylene glycol methyl ether], the “Mean skin irritation scores” value (Merino sheep skin) is reported as 4 and the “skin irritancy / histological dermatitis (in words)” value (Merino sheep skin) is reported as “mild to moderate dermatitis”.

In the case of `CCCCCCCCCCCCCCCCCC(=O)OCCCCCCCC` [OS, octyl stearate], the “Physical Properties (in words)” value [2] is reported as “spreads, lubricant” and the “spread of zeta-cypermethrin from the backline (in words)” value [3] is reported as “modest spread; also recorded: better spread”.

With propylene glycol dicaprylate dicaprate the “skin irritancy / histological dermatitis (in words)” value (Merino sheep skin) was “highly irritant”.

In the case of `CCCCOCCOCCO` [DB, diethylene glycol n-butyl ether], the “Mean skin irritation scores” value (Merino sheep skin) is reported as 7 and the “skin irritancy / histological dermatitis (in words)” value (Merino sheep skin) is reported as “highly irritant”.
